Where two headings read alike, the source gives them in different places.
Legend:
[1] = tested on: acetic acid peritonitis; assay: Anti-exudative activity: acetic acid peritonitis in the rat; type: in vivo; conditions: for PERITONEAL EXUDATE ml ± E.S.: controls 2.91 ± 0.12; for EXUDATE VOLUME ml ± E.S.: controls 2.58 ± 0.18; for anti-exudative activity: oral dose of 10 mg/kg, result in words
Description: The test was carried out according to the procedure described by Arrigoni-Martelli (Boll.Chim. Far. 107, 29, 1968). This method is based upon the evaluation of the anti-exudative effect of a drug at the peritoneal level, following a intraperitoneal injection of 10 ml/kg of a 0.5% acetic acid solution.
The compounds under test were administered oral ly one hour before the inflammatory agent; 30 minutes after the treatment the animals were killed and the fluid from the peritoneal cavity was drawn and measured.
The test compounds were administered by oral route 1 hour before intraperitoneal injection of acetic acid (10 ml/kg of a 0.5% solution).
The anti-exudative activity was determined on the basis of the peritoneal exudate of the treated animals, in comparison with the controls.

[2] = tested on: Writhing test induced by phenyl-benzoquinone; assay: Phenylbenzoquinone writhing test in the rat; type: in vivo
Description: (§1) The activity tests were carried out on male Spra gue-Dawley rats weighing 200+20 g and on male Swiss mice weighing 26+3 g.
(§2) The test compounds were administered orally by means of gastroesophageal tube, in the form of a suspen sion in a 10 ml/kg mucilage of 5% gum arabic; and intraperitoneally in the form of an aqueous suspen sion added with a few drops of Tween 80, in the con stant volume of 10 ml/kg.

[3] = tested on: carrageenin oedema; assay: Antiinflammatory activity: carrageenin oedema in the rat; type: in vivo; conditions: po, 4 h, read-out: OEDEMA INHIBITION % at the fourth hour
Description: as §1, §2
The compounds under test and the control ones were administered orally one hour before the injection of 0.1 ml of 1% carrageenin in the right paw of the animals.
The volume of the paw was measured by means of a plethysmograph immediately before the injection and 2, 4 and 6 hours after.
The results were expressed as percentage inhibi tion of the oedema in the treated animals in comparison with the control animals, at the time of the maximum oedema development (fourth hour after the carrageenin injection).

[4] = tested on: gastric ulceration; type: in vivo, rat; conditions: os; for ULCERA-TION DEGREE: scale 0 to 4
Description: To rats fasted for 18 hours, with water ad libitum, were administered the compounds under test at "0" time and after 2 hours. Control rats were treated with established anti-inflammatory agents.
6 Hours after the beginning of the test, the animals were killed by ether inhalation.
Gastric ulceration was assessed on the ground of values ranging from 0 to 4: • 0 = no ulceration; • 1 = slight iperhaemia and/or a few ulcers; • 2 = severe iperhaemia and many punctiform ulcers; • 3 = severe submucosal hemorrage, one large ulcer and many punctiform ulcers; • 4 severe submucosal hemorrage and many large ulcers.
The ulcerogenic index was measured by the following formula (Lwoff. J.M., J. Pharmacol., 2, 81, 1971): [formula]

[5] = tested on: phenylbenzoquinone writhing test; assay: Phenylbenzoquinone writhing test in the mouse (ED50 and duration of effect); type: in vivo; conditions: for % INHI-BITION / N° OF WRITHES IN 10' ml ± E.S.: Table 6, oral, one hour before the test; for N° OF WRITHES IN 10' ml ± E.S.: controls 52.4 ± 1.69; for % INHIBITION / Nº OF WRITHES IN 10' ml ± E.S.: Table 7, oral 1 mg/kg; for Nº OF WRITHES IN 10' ml ± E.S.: controls 53.2 ± 1.26
Description: The analgesic effect was determined by the number of writhes of the abdomen recorded during 10 minutes (from 5 to 15 minutes after the phenylbenzo quinone injection).

[6] = tested on: Carrageenin pleuritis; assay: Carrageenin pleuritis in the rat; type: in vivo; conditions: for EXUDATE VOLUME: 30 min. before carrageenin and 6 hours after, exudate at 18 hours, controls 2.76 ± 0.38
Description: Compound HA-34 was tested for the protective activity against the exudative pleuritis reaction induced by carrageenin. HA-34 was administered 30 min. before the injection of carrageenin, and 6 hours after it. The experiment was carried out on male Spra- gue-Dawley rats, anestethized with ethyl urethane, which were subjected, in their right pleural cavity, to injection of 1.5 ml of air and then 0.1 ml of a 1% carrageenin solution, in sterile normal saline, according to the procedure by Van Armann et al. (J. Pharmac. Exp. Ther., 150, 328, 1965). Indometha cin and Piroxicam were employed as the control drugs, under the same conditions. 18 Hours after the intrapleuric carrageenin injec tion, the animals were killed by means of ether inhalation, and the pleuric exudate was collected and measured.

[7] = Rattus norvegicus, po, Table 4, os, 10 mg/kg
[8] = Rattus norvegicus, po, 10 min, os, read-out: % INHIBI-TION
[9] = os, 100 mg/kg, one hour before carrageenin
[10] = 400 mg/kg, at 0 time and after 2 hours, killed at 6 hours
[11] = 30 min. before phenylbenzoquinone

O=c1c2c3c(sc2nc2sc(-c4ccccc4)nn12)CCCC3 [HA 33]
inhibition in vivo at 10 mg/kg [1, 7]: 68% | PERITONEAL EXUDATE ml ± E.S. ([1]; Table 4, os, 10 mg/kg): 1.04 ± 0.16 mL | inhibition in vivo at 0.5 mg/kg [2, 8]: 27% | inhibition in vivo at 5 mg/kg [2, 8]: 70% | inhibition in vivo at 100 mg/kg [3, 9]: 39.6 ± 0.76% | ULCERA-TION INDEX ([4]; 400 mg/kg): 0 | % ANIMALS WITH ULCERS [4, 10]: 0% | ULCERA-TION DEGREE ([4]; 400 mg/kg): 0

CCOc1ccccc1-c1nn2c(=O)c3c4c(sc3nc2s1)CCCC4 [HA 36]
inhibition in vivo at 10 mg/kg [1, 7]: 49% | PERITONEAL EXUDATE ml ± E.S. ([1]; Table 4, os, 10 mg/kg): 1.48 ± 0.10 mL | inhibition in vivo at 0.5 mg/kg [2, 8]: 22% | inhibition in vivo at 5 mg/kg [2, 8]: 60% | inhibition in vivo at 100 mg/kg [3, 9]: 52.7 ± 0.61% | ULCERA-TION INDEX ([4]; 400 mg/kg): 0 | % ANIMALS WITH ULCERS [4, 10]: 0% | ULCERA-TION DEGREE ([4]; 400 mg/kg): 0

CCc1nn2c(=O)c3c4c(sc3nc2s1)CCCC4 [HA 32]
inhibition in vivo at 10 mg/kg [1, 7]: 74% | PERITONEAL EXUDATE ml ± E.S. ([1]; Table 4, os, 10 mg/kg): 0.93 ± 0.14 mL | inhibition in vivo at 0.5 mg/kg [2, 8]: 48% | inhibition in vivo at 5 mg/kg [2, 8]: 76% | inhibition in vivo at 100 mg/kg [3, 9]: 49.6 ± 0.82% | ULCERA-TION INDEX ([4]; 400 mg/kg): 0 | % ANIMALS WITH ULCERS [4, 10]: 0% | ULCERA-TION DEGREE ([4]; 400 mg/kg): 0

CN1C(C(=O)Nc2ccccn2)=C(O)c2ccccc2S1(=O)=O [PIROXICAM, Piroxicam]
inhibition in vivo at 0.1 mg/kg ([1]; Rattus norvegicus, po, Table 8, oral, 0.1 mg/kg): 24.6% | inhibition in vivo at 1 mg/kg ([1]; Rattus norvegicus, po, Table 8, oral, 1 mg/kg): 51.2% | inhibition in vivo at 10 mg/kg ([1]; Rattus norvegicus, po, Table 8, oral, 10 mg/kg): 80% | inhibition in vivo at 20 mg/kg ([1]; Rattus norvegicus, po, Table 8, oral, 20 mg/kg): 95.2% | ED50 ([1]; Rattus norvegicus, oral administration 1 hour before i.p. acetic acid): 0.7 mg/kg | EXUDATE VOLUME ml ± E.S. ([1]; Table 8, oral, 0.1 mg/kg, 1 hour before acetic acid): 1.94 ± 0.08 mL | EXUDATE VOLUME ml ± E.S. ([1]; Table 8, oral, 0.5 mg/kg): 1.37 ± 0.07 mL | EXUDATE VOLUME ml ± E.S. ([1]; Table 8, oral, 1 mg/kg): 1.26 ± 0.06 mL | EXUDATE VOLUME ml ± E.S. ([1]; Table 8, oral, 10 mg/kg): 0.49 ± 0.04 mL | EXUDATE VOLUME ml ± E.S. ([1]; Table 8, oral, 20 mg/kg): 0.12 ± 0.06 mL | ED50 ([5]; Mus musculus, 1 h, oral administration one hour before the test, read-out: ED50): 1.2 mg/kg | % INHI-BITION ([5]; 0.1 mg/kg): 11.8% | % INHI-BITION ([5]; 0.5 mg/kg): 28.4% | N° OF WRITHES IN 10' ml ± E.S. ([5]; 0.5 mg/kg): 37.5 ± 1.26 | % INHI-BITION ([5]; 1 mg/kg): 54.8% | N° OF WRITHES IN 10' ml ± E.S. ([5]; 1 mg/kg): 23.7 ± 2.18 | % INHI-BITION ([5]; 2 mg/kg): 61.8% | % INHI-BITION ([5]; 5 mg/kg): 82.2% | N° OF WRITHES IN 10' ml ± E.S. ([5]; 5 mg/kg): 9.3 ± 1.44 | % INHIBITION [5, 11]: 54.5% | Nº OF WRITHES IN 10' ml ± E.S. [5, 11]: 24.2 ± 1.62 | % INHIBITION ([5]; 1 h before phenylbenzoquinone): 57.3% | Nº OF WRITHES IN 10' ml ± E.S. ([5]; 1 h before phenylbenzoquinone): 22.7 ± 2.18 | % INHIBITION ([5]; 3 h before phenylbenzoquinone): 67.6% | % INHIBITION ([5]; 4 h before phenylbenzoquinone): 63.3% | % INHIBITION ([5]; 6 h before phenylbenzoquinone): 65.0% | % INHIBITION ([5]; 8 h before phenylbenzoquinone): 60.1% | Nº OF WRITHES IN 10' ml ± E.S. ([5]; 8 h before phenylbenzoquinone): 21.2 ± 0.72 | % INHIBITION ([5]; 24 h before phenylbenzoquinone): 57.5% | Nº OF WRITHES IN 10' ml ± E.S. ([5]; 24 h before phenylbenzoquinone): 22.6 ± 1.37 | % INHIBITION ([5]; 32 h before phenylbenzoquinone): 12.0% | % INHIBITION ([6]; 5 mg/kg): 39.5% | EXUDATE VOLUME ([6]; 5 mg/kg): 1.67 ± 0.33 | % INHIBITION ([6]; 10 mg/kg): 64.1% | EXUDATE VOLUME ([6]; 10 mg/kg): 0.99 ± 0.40

CC(=O)Oc1ccccc1C(=O)O [ASA, Acetylsali cylic acid]
PERITONEAL EXUDATE ml ± E.S. ([1]; Table 4, os, 20 mg/kg): 2.76 ± 0.13 mL | anti-exudative activity [1]: did not display valuable anti-exudat- ing properties | inhibition in vivo at 50 mg/kg ([2]; Rattus norvegicus, po, 10 min, read-out: % INHIBI-TION): 40% | inhibition in vivo at 100 mg/kg [3]: 31.4 ± 0.37% | % ANIMALS WITH ULCERS ([4]; 200 mg/kg): 78% | ULCERA-TION INDEX ([4]; 200 mg/kg): 112 | ULCERA-TION DEGREE ([4]; 200 mg/kg): 1.5

Cc1nn2c(=O)c3c4c(sc3nc2s1)CCC4 [HA 30]
inhibition in vivo at 10 mg/kg [1, 7]: 14% | PERITONEAL EXUDATE ml ± E.S. ([1]; Table 4, os, 10 mg/kg): 2.50 ± 0.10 mL | anti-exudative activity [1]: did not display valuable anti-exudat- ing properties | inhibition in vivo at 0.5 mg/kg [2, 8]: 15% | inhibition in vivo at 5 mg/kg [2, 8]: 36% | analgesic action ([2]; oral doses of 5 and 0.5 mg/kg, result in words): substan tially comparable to the reference compound | inhibition in vivo at 100 mg/kg [3, 9]: 35.6 ± 0.74%

Cc1cccc(Nc2ccccc2C(=O)O)c1C [MFA, mephenamic acid]
inhibition in vivo at 10 mg/kg [1, 7]: 6% | PERITONEAL EXUDATE ml ± E.S. ([1]; Table 4, os, 10 mg/kg): 2.60 ± 0.15 mL | anti-exudative activity [1]: did not display valuable anti-exudat- ing properties | inhibition in vivo at 5 mg/kg [2, 8]: 24% | inhibition in vivo at 10 mg/kg ([2]; Rattus norvegicus, po, 10 min, os, 10 mg/kg, read-out: % INHIBI-TION): 33% | inhibition in vivo at 100 mg/kg [3, 9]: 49.2 ± 0.86% | % ANIMALS WITH ULCERS ([4]; 200 mg/kg): 50% | ULCERA-TION INDEX ([4]; 200 mg/kg): 50 | ULCERA-TION DEGREE ([4]; 200 mg/kg): 1.0

Reference: EP0133934A2, “Pharmacologically active 1,3,4-thiadiazol-(3,2-a)-thieno-(2,3-d)-pyrimidin-5-(H)one derivatives” (NIKEPHARMA S.r.l., priority 1983, dated 1985)
